In experiment [1] the test system is IL-1-induced COX-2 expression. The experiment is described as follows: IL-1-induced COX-2 expression in S112 human dermal fibroblasts (MIF-dependent bioassay). It counts as cell-based. Here is the method:
The activity of compounds was studied in a bioassay utilising MIF-dependent activation of human dermal fibroblasts. […] IL-1-induced COX-2 expression is therefore a MIF-dependent event. […] Prior to experimentation, cells were seeded at 10^5 cells/ml in RPMI/0.1% BSA for 18 hours. […] After 6 hours, cells were collected and intracellular COX-2 protein determined by permeabilisation flow cytometry. […] Cellular fluorescence was determined using a flow cytometer. At least 5000 events were counted for each reading, each of which was performed in duplicate, and the results expressed in mean fluorescence intensity (MFI) after subtraction of negative control-labelled cell fluorescence. The effect of each compound was determined by subtracting the IL-1+compound-treated cell MFI from the IL-1-treated cell (control) MFI and expressed as % inhibition. In each case the % inhibition of IL-1-induced COX-2 expression is expressed as the mean, or mean±SEM where results are available from multiple experiments.

In experiment [2] the test system is antigen-specific T cell activation. The experiment is described as follows: antigen-specific (mBSA) activation of splenic T lymphocytes, 3H-thymidine incorporation. In kind it is cell-based, mice. The conditions noted are these: Mus musculus, T-cell, read-out: EC50, inhibition of T cell activation. Here is the method:
C57BL6/J male mice, aged 7-10 weeks old, were immunised with 200 μg of methylated bovine serum albumin (mBSA) dissolved in 20 μL of saline, emulsified in 200 μL of Freund's complete adjuvant (FCA) by subcutaneous injection. Seven (7) days later mice received a booster immunisation with 100 μg mBSA in 10 μL saline plus 100 μL FCA by subcutaneous injection. After a further seven (7) days mice were killed and spleens collected aseptically into Hanks buffered saline solution (HBSS). A single cell suspension was prepared in Petri dishes by flushing DMEM using a 26G needle and 2 mL syringe. The resulting cell suspension was centrifuged for 5-7 minutes and supernatant discarded. Erythrocytes were lysed using a solution containing 0.579% NH4Cl, 0.000037% EDTA, and 0.1% NaHCO3 in a 37° C. water bath. Tubes were then filled with DMEM and centrifuged for 5-7 minutes. The cell-containing pellet was then resuspended in DMEM containing 5% fetal calf serum TICS) and 0.05% 2-mercapto-ethanol at a concentration of 1×10^6 cells/mL and plated at 1×10^5 cells/well in 96-well plastic tissue culture plates. Test substances (compound or vehicle) were added and incubated for 1 hour in a 37° C., 5% CO2 incubator. The specific stimulating antigen, mBSA, was then added at 10-50 μg/ml and plates incubated for 30 hours in a 37° C., 5% CO2 incubator. Tritiated ^3H-thymidine was then added at a concentration of 0.5 μCi/well for a further 18 hours. Cells were harvested on a Packard cell harvester, and the harvested material added to 750 μL/tube scintillation fluid. Scintillation counts were read on a Wallac beta-emission counter.
The concentration at which T cell activation was suppressed by 50% compared to vehicle-only-treated cells (EC50) was calculated using Prism® software. […] Further compounds were also tested for their ability to inhibit antigen-specific T cell activation as a marker of the inhibition of the cytokine or biological activity of MIF using this assay. Table 5 lists the EC50 for each compound in this assay, performed with concentrations of mBSA of either 50 or 10 μg/ml.
For orientation: Dividing cells build labelled thymidine or BrdU into new DNA.

In experiment [3] the test system is murine antigen induced arthritis. Briefly: murine antigen-induced arthritis, histological score. It counts as in vivo, mice. Here is the method: Antigen-induced arthritis was induced in mice. C57BL6/J male mice, aged 7-10 weeks old, were immunized on day 0 with 200 μg methylated BSA (mBSA) emulsified in 200 μl of Freund's complete adjuvant (FCA) injected subcutaneously into the flank skin. Mice were treated with compound 5, administered by intraperitoneal injection, once per 24 hours at a dose of 15 mg/kg body weight. After seven days, mice received 100 μg mBSA and 100 μl FCA by intradermal injection at the base of the tail. After a further 14 days, arthritis was induced by intra-articular injection of 30 μg mBSA in 10 μl of sterile saline into the left knee, the right knee being injected with sterile saline alone.
Arthritis was analysed histologically at day 28 after first immunisation. Knee joints were dissected and fixed in 10% buffered formalin for 7 days. Fixed tissues were decalcified for 3 weeks in 15% ethylene-diamine-tetra-acetic acid (EDTA), dehydrated and embedded in paraffin. Sagittal sections (5 μm) of the knee joint were stained with Safranin-O and counterstained with fast green/iron hematoxylin. Histological sections were scored from 0 to 3 for four parameters: Synovitis was defined as hyper-cellularity of the synovium including pannus formation. Joint space exudate was identified as leukocytes, discretely or in aggregates, in the joint space. Cartilage degradation was defined as the loss of Safranin-O staining of articular cartilage (0=full stained cartilage, 3=totally unstained cartilage). Bone damage was defined as the extent and depth of the subchondral bone invasion by pannus. A total score was also generated from the sum of these four parameters (maximum 12).

For experiment [4], the system named is lymph node and splenic T cells. The experiment is described as follows: ex vivo antigen-specific T cell activation after in vivo treatment. Also noted: species or system mice. An excerpt:
In vivo administration of such a compound might be expected to exert effects on T cell responsiveness even after the T cells have been removed from exposure to the compound, that is, if T cells were studied ex vivo after in vivo treatment with the MIF antagonist compound. To measure ex vivo antigen-specific T cell activation, draining lymph nodes from arthritic limbs or spleens were removed from mice with murine antigen induced arthritis, induced as above with mBSA, at day 28 after first immunisation and a single cell suspension prepared in DMEM containing 5% FCS and 0.05% 2-mercaptoethanol. 1×10^5 cells/200 μl were cultured in triplicate in the presence or absence of mBSA (0.1, 1.0, 10 μg/ml) in 96-well plates for 48 hours (37° C., 5% CO2.) The T cell proliferation response was determined by measuring ^3H-thymidine incorporation during the final 18 hr. The cells were harvested and radioactivity incorporation into the DNA was measured with a Wallac 1409 liquid scintillation counter. The means of each triplicate culture were calculated. Each experiment comprised at least three individual animals and the results presented represent the mean±SEM of groups of animals in each experiment. The percentage inhibition of T cell proliferation was calculated using the result of the […] incorporation of cells from compound-treated animals subtracted from the ^3H-thymidine incorporation of cells from vehicle-treated animals.

In experiment [5] the test system is murine peritoneal macrophage cytokine production. Briefly: inhibition of peritoneal macrophage cytokine production (ELISA). It counts as cell-based, mice. As to conditions: Mus musculus. Here is the method:
C57BL6/J male mice were injected intraperitoneally with 2 ml of thioglycollate. Five (5) days later peritoneal macrophages were collected by lavaging the peritoneum of anaesthetized mice with 3 ml of cold Hanks buffered saline solution. Cells from several mice were pooled, washed and re-suspended in DMEM supplemented with 5% FCS. Cells were plated in 96 well plastic tissue culture plates at 1×10^5 cells/well. Cells were treated with compound or vehicle for 1 hour in a 5% CO2 incubator at 37° C. Cells were then treated with LPS (10-100 ng/ml) or recombinant human interferon-γ (10 units/ml) and incubated for 24 hours. After 24 hours, 50 μl of supernatant from each well was carefully removed and transferred to ELISA plates. The concentration of interleukin 1 (IL-1) or interleukin 6 (IL-6) was measured by ELISA. The concentration of compound at which LPS- or interferon-γ-induced cytokine release was suppressed by 50% compared to vehicle-only-treated cells (EC50) was calculated using Prism® software. Table 9 lists the EC50 for two compounds tested in this assay.
For orientation: An ELISA detects its analyte on a solid surface through an enzyme-linked reagent.

In experiment [6] the test system is IL-1 induced phosphorylation of ERK. The experiment is described as follows: IL-1 induced phosphorylation (activation) of ERK, Western blotting. In kind it is cell-based, human. The conditions noted are these: dexamethasone 10^-9 M alone; human dermal fibroblasts, IL-1 0.1 ng/ml, 30 minutes. Here is the method:
S112 human dermal fibroblasts cultured in RPMI (serum-free) medium were stimulated with recombinant human IL-1 0.1 ng/ml, as described herein, for 30 minutes, with or without the addition of dexamethasone 10^−9M or benzimidazol-2-one-5-pentanoate (compound 5) (50 μM). The phosphorylation (activation) of ERK was assessed using Western blotting with a mAb specific for the phosphorylated (activated) form of ERK. In brief, cells were disrupted by repeated aspiration through a 21-gauge needle. After incubation on ice for 10 min and microcentrifugation at 3000 rpm for 15 min (4° C.), the supernatants were removed, the protein concentration was determined, and the lysates were stored at −80° C. Equal amounts of cellular proteins were fractionated on 10% SDS-polyacrylamide electrophoresis gels and transferred to polyvinylidene difluoride membranes. Immunoblotting was performed using antibodies directed against phospho-p44/42 (ERK) and total p44142 according to the manufacturer's instructions. The intensity of ERK activation is proportional to the size and optical density (darkness) of the resulting blots. Total ERK blots serve as a loading control, such that changes in phosphorylated ERK represent changes in phosphorylation and not in total ERK protein.
In general terms: In western blotting, separated proteins are transferred to a membrane and probed.

Entries after “also recorded” stand apart in the source; their conditions may differ. Where two headings read alike, the source gives them in different places.

A word on the inhibition: it is the relative decrease from the control value, in per cent. For orientation: EC50 means the midpoint of the concentration-response curve. `O=C(NCCc1ccc(O)c(O)c1)c1ccc2[nH]c(=O)[nH]c2c1` [Compound 13, N-(3,4-dihydroxyphenethyl)-2-oxo-2,3-dihydro-1H-1,3-benzimidazole-5-carboxamide] came in with an inhibition at 1 µM in experiment [1] (Homo sapiens, Fibroblast, compound 1 μM, S112 cells, IL-1 0.1 ng/ml, 6 hours) of 9.6%. For the same compound, testing at 10 µM in experiment [1] (Homo sapiens, Fibroblast, compound 10 μM, S112 cells, IL-1 0.1 ng/ml, 6 hours) gave an inhibition of 14.1%. For the same compound, the inhibition at 50 µM in experiment [1] (Homo sapiens, Fibroblast, compound 50 μM, S112 cells, IL-1 0.1 ng/ml, 6 hours, read-out: % inhibition of IL-1-induced COX-2 expression) worked out at 32.2%. In experiment [1] (Homo sapiens, Fibroblast, compound 100 μM, S112 cells, IL-1 0.1 ng/ml, 6 hours), testing at 100 µM gave an inhibition of 29.9%. Moreover, the EC50 worked out at 53.3 µM in experiment [2] (mBSA 10 μg/ml); 71.7 µM in experiment [2] (mBSA 50 μg/ml); 9.82 µM in experiment [5] (Interferon-γ 10 units/ml, read-out: EC50, IL-6 release); 16.7 µM in experiment [5] ([LPS] 100 ng/mL, read-out: EC50, IL-1 release). Besides, in experiment [3] (maximum 12, vehicle 6.25 ± 0.2), the “Total arthritis score (mean ± SEM)” value is recorded as 5.17 ± 1.9. Moreover, in experiment [3] (mouse, in vivo), the “severity of murine antigen induced arthritis” value is given as “inhibitory effect”. For the same compound, the “ex vivo splenic T cell proliferation in response to mBSA” value in experiment [4] (FIG. 11b, table 7, vs vehicle) was “reduced proliferative responses”. The “% inhibition of ex vivo splenic T cell activation” value in experiment [4] ([mBSA] 10 μg/mL) stood at 28%.

With `C[C@@H]1C[C@H]2[C@@H]3CCC4=CC(=O)C=C[C@]4(C)[C@@]3(F)[C@@H](O)C[C@]2(C)[C@@]1(O)C(=O)CO` [Dexamethasone, dexamethasone], in experiment [1] (Table 2 experiment, dexamethasone 10^-9 M alone), the “% Inhibition of IL-1 induced COX-2 expression” value is on record as 46.8%. Besides, in experiment [6], the “ERK activation by IL-1” value is given as “does not inhibit; also recorded: not inhibited”.
